This note sets out measurements from PubChem BioAssay (NCI).

Test in all cases: NCI-60 cell line screen, 48 h
Assay [1] has as its system HOP-92 NSCLC.
For assay [2], the system named is HCT-15 colon.
In assay [3] the test system is A498 renal.
Assay [4] has as its system NCI-H226 lung.
The test system of assay [5] is UACC-257 melanoma.
The subject of assay [6] is SK-MEL-5 melanoma.
For assay [7], the system named is SW-620 colon.
For assay [8], the system named is UACC-62 melanoma.
Assay [9] deals with IGROV1 ovarian.
Assay [10] concerns A549 NSCLC.

The structures appear in SMILES notation. Several values for one entry are separate records, joined by “and”; a condition that tells them apart may be missing. Identical values can stand only once.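 Where inhibition never reached the appropriate level, the endpoint shown equals the highest concentration tested. Otherwise, values were interpolated linearly from a five-concentration, 48-hour dose response in 96-well plates. The concentration for 50% growth inhibition is given as GI50. TGI denotes the concentration required for complete inhibition of growth.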

Turning to `NC(N)=Nc1nc2ccccc2[nH]1`, the GI50 in assay [1] was 103 µg/mL; in assay [2], 80.9 µg/mL; in assay [3], 45.8 µg/mL; in assay [4], 55.3 µg/mL; in assay [5], 72.4 µg/mL; in assay [6] it was 31.1 µg/mL. In addition, the GI50 in assay [7] is 60.6 µg/mL; in assay [8] it was 36.2 µg/mL; in assay [9], 23.7 µg/mL; in assay [10], 61 µg/mL. Besides, the TGI in assay [1] was greater than 150 µg/mL; in assay [2], greater than 150 µg/mL; in [3], greater than 150 µg/mL; in assay [4], greater than 150 µg/mL; in [5] it was greater than 150 µg/mL; in assay [6], 99 µg/mL. Also, the TGI in assay [7], in assay [8], in assay [9] and in [10] was greater than 150 µg/mL throughout.
With `S=C1SC(c2ccc(Cl)cc2)(c2ccc(Cl)cc2)c2ccccc21`, the TGI in [1], in [2], in [3], in [4], in assay [5] and in [6] was greater than 100 µM in each case. Moreover, the TGI in assay [7], in assay [8], in assay [9] and in assay [10] was greater than 100 µM throughout.
On to `CCCCCCCC/C=C/CCCCCCCC1CC(O)C(=O)O1` (centres undefined), for which the TGI in assay [1] was 90.9 µM; in assay [2], greater than 100 µM; in assay [3], greater than 100 µM; in [4], greater than 100 µM; in assay [5] it was greater than 100 µM; in [6] it was greater than 100 µM. Moreover, the TGI in assay [7], in [8], in [9] and in assay [10] was greater than 100 µM each time.
`CC(NC(=O)C(N)CC(=O)O)NC(=O)N1CCCC1` (centres undefined): the TGI in assay [1], in assay [2], in assay [3], in [4], in assay [5] and in assay [6] was greater than 100 µM in each case. Further, the TGI in assay [7], in assay [8], in [9] and in [10] was greater than 100 µM in each case.
Consider `O=C(N/C(=C\c1ccccc1)C1Nc2ccccc2C(=O)O1)c1ccccc1` (centres undefined), for which the TGI is greater than 100 µM in assay [1]; greater than 100 µM in assay [2]; greater than 100 µM in [3]; greater than 100 µM in [4]; 58.4 µM in assay [5]; 34.7 µM in assay [6]. Also, the TGI was 59.6 µM in assay [7], greater than 100 µM in assay [8], greater than 100 µM in assay [9] and greater than 100 µM in assay [10].
On to `CC(=O)Nc1ccc(-c2nc3ccccc3s2)cc1O`, for which the TGI was greater than 100 µM in assay [1]; greater than 100 µM in [2]; greater than 100 µM in [3]; 45.9 µM in [4]; greater than 100 µM in [5]; 62.8 µM in [6]. Further, the TGI was greater than 100 µM in [7], 83.1 µM in [8], 57.7 µM in assay [9] and greater than 100 µM in [10].
On to `COc1cc([C@@H]2c3cc4c(c(O)c3C[C@H]3COC(=O)[C@@H]32)OCO4)cc(OC)c1O`, for which the GI50 is 0.00576 µM in [1]; 0.00348 µM and 0.0265 µM in assay [2]; 0.00144 µM in assay [3]; 0.00562 µM in assay [4]; 0.005 µM in assay [5]; 0.00221 µM in assay [6]. The GI50 in assay [7] was 0.00397 µM; in [8] it was 0.00454 µM; in assay [9], 0.00276 µM; in [10], 0.00385 µM. In addition, the TGI in [1] is 0.113 µM; in assay [2] it was greater than 9.28 µM; in assay [3], 0.0046 µM and < 0.02 µM; in assay [5], greater than 20 µM; in assay [6], 0.00624 µM and < 0.02 µM; in assay [7], greater than 200 µM. For the same molecule, the TGI is greater than 200 µM in assay [8], greater than 128 µM in assay [9] and greater than 200 µM in assay [10].
For the molecule `CC(=O)O[C@H]1[C@@H](N2CCN(C)CC2)C[C@H]2[C@@H]3CC=C4C[C@@H](N5CCCC5)CC[C@]4(C)[C@H]3CC[C@@]21C`, the TGI in assay [1] is greater than 100 µM; in assay [2], greater than 100 µM; in assay [3] it was greater than 100 µM; in assay [4] it was greater than 100 µM; in [5] it was 49.4 µM; in assay [6], 73 µM. Besides, the TGI in [7], in assay [8], in assay [9] and in assay [10] was greater than 100 µM in each case.
For `CSc1ccc2c(cc1=O)[C@@H](NC(=O)c1ccc(F)cc1)CCc1cc(O)c(O)c(O)c1-2`, the TGI in [1], in assay [2], in [3], in [4], in assay [5] and in assay [6] was greater than 100 µM in each case. Moreover, the TGI in assay [7], in assay [8], in assay [9] and in assay [10] was greater than 100 µM in each case.
In the case of `CC1(C)O[C@@H]2[C@@H]3OC(=O)C[C@@H]3[C@@H](COCc3ccccc3)[C@@H]2O1`, the TGI in assay [1], in assay [2], in assay [3], in assay [4], in assay [5] and in [6] was greater than 100 µM throughout. Besides, the TGI in assay [7], in assay [8], in assay [9] and in [10] was greater than 100 µM throughout.
As for `COC(=O)CCC(=O)c1ccc2c(c1)CC1(C2)Cc2ccc3c(c2C1)CCCC3=O` (centres undefined), the TGI was 64.7 µM in assay [1]; greater than 67.4 µM in assay [2]; 82.8 µM in assay [3]; 85.6 µM in [4]; 54.6 µM in assay [5]; 22.5 µM in [6]. Also, the TGI in assay [7], in assay [8], in assay [9] and in [10] was greater than 100 µM each time.
